Laboratory results as given in patent publication US20240124417A1, “COMPOUNDS USEFUL AS IMMUNOMODULATORS” (Bristol-Myers Squibb Company, priority 2019, published 2024).

Target: T1, PD-1/PD-L1 (Homo sapiens, UniProt Q9NZQ7)
T1 construct: TVMV protease site linker (C); made in house; host or cells: HEK293T cells
Test: PD-1/PD-L1 Homogenous Time-Resolved Fluorescence (HTRF) binding assay
Settings: PD-L1-His 10 nM, PD-1-Ig 20 nM
Procedure, shortened: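 Inhibitors pre-incubated 15 min with PD-L1-His extracellular domain (10 nM final) in dPBS with 0.1% BSA and 0.05% Tween-20, then PD-1-Ig (20 nM final) added for a further 15 min. Read-out by HTRF with europium cryptate anti-Ig (1 nM) and APC anti-His (20 nM). Related pairs: PD-1-Ig/PD-L2-His (20/5 nM), CD80-His/PD-L1-Ig (100/10 nM).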

T1 sequence (Q9NZQ7 18-239): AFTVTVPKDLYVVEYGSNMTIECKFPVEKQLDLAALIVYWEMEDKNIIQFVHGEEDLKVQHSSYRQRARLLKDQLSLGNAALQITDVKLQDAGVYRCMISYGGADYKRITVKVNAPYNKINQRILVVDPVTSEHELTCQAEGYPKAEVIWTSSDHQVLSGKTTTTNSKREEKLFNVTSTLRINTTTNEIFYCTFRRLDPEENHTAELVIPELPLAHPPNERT

Row | SMILES | IC50
1 | Cc1c(COc2cc(OCc3cncc(C#N)c3)c(CNC3(c4ncon4)CC(OCc4ccccc4)C3)cc2Cl)cccc1-c1cccc(OCC2CCCN(C)C2)c1Cl (centres unmarked) [Example 2625, 5-((2-(((3-(benzyloxy)-1-(1,2,4-oxadiazol-3-yl)cyclobutyl)amino)methyl)-4-chloro-5-((2′-chloro-2-methyl-3′-((1-methylpiperidin-3-yl)methoxy)-[1,1′-biphenyl]-3-yl)methoxy)phenoxy)methyl)nicotinonitrile] | 35.3 nM
2 | Cc1c(COc2cc(OCc3cncc(C#N)c3)c(CNCc3ccccn3)cc2Cl)cccc1-c1cccc(OCCCN2CC[C@@H](O)C2)c1C [Example 2017, (R)-5-((4-chloro-5-((3′-(3-(3-hydroxypyrrolidin-1-yl)propoxy)-2,2′-dimethyl-[1,1′-biphenyl]-3-yl)methoxy)-2-(((pyridin-2-ylmethyl)amino)methyl)phenoxy)methyl)nicotinonitrile] | 2.1 nM
3 | [2H]C([2H])([2H])C(NCc1cc(Cl)c(OCc2cccc(-c3cccc(OCC4CCCN(C)C4)c3Cl)c2C)cc1OCc1cncc(C#N)c1)(c1ncon1)C([2H])([2H])[2H] (centres unmarked) [Example 2624, 5-((2-(((2-(1,2,4-oxadiazol-3-yl)propan-2-yl-1,1,1,3,3,3-d6)amino)methyl)-4-chloro-5-((2′-chloro-2-methyl-3′-((1-methylpiperidin-3-yl)methoxy)-[1,1′-biphenyl]-3-yl)methoxy)phenoxy)methyl)nicotinonitrile] | 3 nM
4 | CC(=O)NC1CCN(CCCOc2cccc(-c3cccc(COc4cc(OCc5cncc(C#N)c5)c(CNCCc5nnnn5C)cc4Cl)c3C)c2C)CC1 [Example 1049, N-(1-(3-((3′-((2-Chloro-5-((5-cyanopyridin-3-yl)methoxy)-4-(((2-(1-methyl-1H-tetrazol-5-yl)ethyl)amino)methyl)phenoxy)methyl)-2,2′-dimethyl-[1,1′-biphenyl]-3-yl)oxy)-propyl)piperidin-4-yl)acetamide] | 2.5 nM
5 | Cc1c(COc2cc(OCc3cncc(C#N)c3)c(CNCCc3nc4cc(Cl)ccc4[nH]3)cc2Cl)cccc1-c1cccc(OCCCN2CC[C@@H](O)C2)c1C [Example 2516, (R)-5-((4-chloro-2-(((2-(5-chloro-1H-benzo[d]imidazol-2-yl)ethyl)amino)methyl)-5-((3′-(3-(3-hydroxypyrrolidin-1-yl)propoxy)-2,2′-dimethyl-[1,1′-biphenyl]-3-yl)methoxy)phenoxy)methyl)nicotinonitrile] | 4.5 nM
6 | Cc1c(COc2cc(OCc3cncc(C#N)c3)c(CNCc3ncc(-c4ccccc4)o3)cc2Cl)cccc1-c1cccc(OCC2CCCN(C)C2)c1Cl (centres unmarked) [Example 2612, 5-((4-chloro-5-((2′-chloro-2-methyl-3′-((1-methylpiperidin-3-yl)methoxy)-[1,1′-biphenyl]-3-yl)methoxy)-2-((((5-phenyloxazol-2-yl)methyl)amino)methyl)phenoxy)methyl)nicotinonitrile] | 7.3 nM
7 | CCc1nc(CN(CCOC)Cc2cc(Cl)c(OCc3cccc(-c4cccc(OCCCN5CC[C@@H](O)C5)c4C)c3C)cc2OCc2cncc(C#N)c2)[nH]c1CC [Example 2571, (R)-5-((4-chloro-2-((((4,5-diethyl-1H-imidazol-2-yl)methyl)(2-methoxyethyl)amino)methyl)-5-((3′-(3-(3-hydroxypyrrolidin-1-yl)propoxy)-2,2′-dimethyl-[1,1′-biphenyl]-3-yl)methoxy)phenoxy)methyl)nicotinonitrile] | 3.8 nM
8 | CC(=O)NC1CCN(CCCOc2cccc(-c3cccc(COc4cc(OCc5cncc(C#N)c5)c(CN5CCCC(c6ncc[nH]6)C5)cc4Cl)c3C)c2C)CC1 (centres unmarked) [Example 1038, N-(1-(3-((3′-((4-((3-(1H-Imidazol-2-yl)piperidin-1-yl)methyl)-2-chloro-5-((5-cyano-pyridin-3-yl)methoxy)phenoxy)methyl)-2,2′-dimethyl-[1,1′-biphenyl]-3-yl)oxy)propyl)-piperidin-4-yl)acetamide] | 3.7 nM
9 | Cc1c(COc2cc(OCc3cncc(C#N)c3)c(CN(C)Cc3nc4ccccc4n3Cc3ccccc3)cc2Cl)cccc1-c1cccc(OCCCN2CC[C@@H](O)C2)c1C [Example 2561, (R)-5-((2-((((1-benzyl-1H-benzo[d]imidazol-2-yl)methyl)(methyl)amino)methyl)-4-chloro-5-((3′-(3-(3-hydroxypyrrolidin-1-yl)propoxy)-2,2′-dimethyl-[1,1′-biphenyl]-3-yl)methoxy)phenoxy)methyl)nicotinonitrile] | 746 nM
10 | Cc1c(COc2cc(OCc3cncc(C#N)c3)c(CN(C)CCc3cc[nH]n3)cc2Cl)cccc1-c1cccc(OCCCN2CC[C@@H](O)C2)c1C [Example 2518, (R)-5-((2-(((2-(1H-pyrazol-3-yl)ethyl)(methyl)amino)methyl)-4-chloro-5-((3′-(3-(3-hydroxypyrrolidin-1-yl)propoxy)-2,2′-dimethyl-[1,1′-biphenyl]-3-yl)methoxy)phenoxy)methyl)nicotinonitrile] | 4.4 nM
11 | Cc1c(COc2cc(OCc3cncc(C#N)c3)c(CNCCc3nc4ccccc4[nH]3)cc2Cl)cccc1-c1cccc(OCCCN2CC[C@@H](O)C2)c1C [Example 2505, (R)-5-((2-(((2-(1H-benzo[d]imidazol-2-yl)ethyl)amino)methyl)-4-chloro-5-((3′-(3-(3 hydroxypyrrolidin-1-yl)propoxy)-2,2′-dimethyl-[1,1′-biphenyl]-3yl)methoxy)phenoxy)methyl)nicotinonitrile] | 6.7 nM
12 | Cc1ncsc1CCN(C)Cc1cc(Cl)c(OCc2cccc(-c3cccc(OCCCN4CC[C@@H](O)C4)c3C)c2C)cc1OCc1cncc(C#N)c1 [Example 2511, (R)-5-((4-chloro-5-((3′-(3-(3-hydroxypyrrolidin-1-yl)propoxy)-2,2′-dimethyl-[1,1′-biphenyl]-3-yl)methoxy)-2-((methyl(2-(4-methylthiazol-5-yl)ethyl)amino)methyl)phenoxy)methyl)nicotinonitrile] | 3.3 nM
13 | Cc1c(COc2cc(OCc3cncc(C#N)c3)c(CNCCc3cc[nH]n3)cc2Cl)cccc1-c1cccc(OCC2CCCN(C)C2)c1Cl (centres unmarked) [Example 2582, 5-((2-(((2-(1H-pyrazol-3-yl)ethyl)amino)methyl)-4-chloro-5-((2′-chloro-2-methyl-3′-((1-methylpiperidin-3-yl)methoxy)-[1,1′-biphenyl]-3-yl)methoxy)phenoxy)methyl)nicotinonitrile] | 3.7 nM
14 | Cc1c(COc2cc(OCc3cncc(C#N)c3)c(CNCCc3c[nH]cn3)cc2Cl)cccc1-c1cccc(OCCCN2CC[C@@H](O)C2)c1C [Example 2532, (R)-5-((2-(((2-(1H-imidazol-4-yl)ethyl)amino)methyl)-4-chloro-5-((3′-(3-(3-hydroxypyrrolidin-1-yl)propoxy)-2,2′-dimethyl-[1,1′-biphenyl]-3-yl)methoxy)phenoxy)methyl)nicotinonitrile] | 4.8 nM

These reach a lower IC50. Values come first.

Row | IC50 | SMILES
15 | 0.7 nM | CC(=O)NC1CCN(CCCOc2cccc(-c3cccc(COc4cc(OCc5cncc(C#N)c5)c(CNCC(C)c5nnn[nH]5)cc4Cl)c3C)c2C)CC1 (centres unmarked) [Example 1050, N-(1-(3-((3′-((4-(((2-(1H-Tetrazol-5-yl)propyl)amino)methyl)-2-chloro-5-((5-cyano-pyridin-3-yl)methoxy)phenoxy)methyl)-2,2′-dimethyl-[1,1′-biphenyl]-3-yl)oxy)propyl)-piperidin-4-yl)acetamide]
16 | 0.7 nM | Cc1c(COc2cc(OCc3cncc(C#N)c3)c(CN3CCCC(c4ccn[nH]4)C3)cc2Cl)cccc1-c1cccc(OCC2CCCN(C)C2)c1Cl (centres unmarked) [Example 1024, 5-((2-((3-(1H-Pyrazol-5-yl)piperidin-1-yl)methyl)-4-chloro-5-((2′-chloro-2-methyl-3′-((1-methylpiperidin-3-yl)methoxy)-[1,1′-biphenyl]-3-yl)methoxy)phenoxy)methyl)-nicotinonitrile]
17 | 0.5 nM | Cc1c(COc2cc(OCc3cncc(C#N)c3)c(CN3CCCCC3c3ncc[nH]3)cc2Cl)cccc1-c1cccc(OCCCN2CC[C@@H](O)C2)c1C (stereo partly drawn) [Example 1009, 5-((2-((2-(1H-Imidazol-2-yl)piperidin-1-yl)methyl)-4-chloro-5-((3′-(3-((R)-3-hydroxy-pyrrolidin-1-yl)propoxy)-2,2′-dimethyl-[1,1′-biphenyl]-3-yl)methoxy)phenoxy)methyl)-nicotinonitrile]
18 | 1.1 nM | Cc1cc(CN(C)Cc2cc(Cl)c(OCc3cccc(-c4cccc(OCCCN5CC[C@@H](O)C5)c4C)c3C)cc2OCc2cncc(C#N)c2)no1 [Example 2529, (R)-5-((4-chloro-5-((3′-(3-(3-hydroxypyrrolidin-1-yl)propoxy)-2,2′-dimethyl-[1,1′-biphenyl]-3-yl)methoxy)-2-((methyl((5-methylisoxazol-3-yl)methyl)amino)methyl)phenoxy)methyl)nicotinonitrile]
19 | < 0.038 nM | CCc1csc(CNCc2cc(Cl)c(OCc3cccc(-c4cccc(OCCCN5CC[C@@H](O)C5)c4C)c3C)cc2OCc2cncc(C#N)c2)n1 [Example 2548, (R)-5-((4-chloro-2-((((4-ethylthiazol-2-yl)methyl)amino)methyl)-5-((3′-(3-(3-hydroxypyrrolidin-1-yl)propoxy)-2,2′-dimethyl-[1,1′-biphenyl]-3-yl)methoxy)phenoxy)methyl)nicotinonitrile]
20 | 1.9 nM | Cc1c(COc2cc(OCc3cncc(C#N)c3)c(CN(C)Cc3ccn(C)n3)cc2Cl)cccc1-c1cccc(OCCCN2CC[C@@H](O)C2)c1C [Example 2026, (R)-5-((4-chloro-5-((3′-(3-(3-hydroxypyrrolidin-1-yl)propoxy)-2,2′-dimethyl-[1,1′-biphenyl]-3-yl)methoxy)-2-((methyl((1-methyl-1H-pyrazol-3-yl)methyl)amino)methyl)phenoxy)methyl)nicotinonitrile]
